Test [1] concerns the target T1, Pol δ (Homo sapiens, UniProt P28340).
T1 construct: made in house; host or cells: insect cells (Pol δ); E. coli (PCNA)
Put plainly: poly(dA)/oligo(dT) DNA polymerase assay. Format: biochemical. From the text: In order to validate the predicted inhibitory properties of zelpolib, we used the well-established DNA polymerase assay, poly(dA)/oligo(dT) method^1,16, to quantify the inhibition constants. In this assay, a poly(dA) template (up to 4 kilobases) was randomly primed with oligo(dT) primers (40 mer). In the presence of proliferating cell nuclear antigen (PCNA), Pol δ will initiate the elongation of oligo dT primer with the incorporation of radio-labeled deoxythymidine (^3H). The polymerase activity can then be precisely quantified by counting the isotope incorporated.
A model structure of the catalytic domain of human Pol δ was generated based on the structure of yeast pol δ^72 by SWISSPDB^73. The primary sequences of both proteins are conserved and the active sites structures were virtually identical between the model structure and that of yeast pol δ. […] Subsequently, the 300 compounds with the highest scores were selected and analyzed by Pymol. […]
Three different assays are used to analyze DNA polymerase activities and the impact of zelpolib. The poly(dA)/oligo(dT) assay^1,16 were used for precisely quantification as reported. […] [3H]dTMP incorporation was read on liquid scintillation counter. […]

Test [2] addresses T1, Pol δ. Put plainly: single nucleotide primer extension (incorporation) assay. It counts as biochemical. Conditions: single dNTP present. Here is the method: In our in silico screening, the active site cavity was created by the removal of dCTP in the original crystal structure. […] Therefore, we assayed the inhibition patterns of 4 individual dNTP molecules in a single nucleotide incorporation assays. In this assay, only one nucleotide is present for the primer extension for the next appropriate base paring to the template.
Briefly, the standard reaction mixture contained 5 μM dNTP, 5 mM MgCl2, 50 mM Tris-HCl (pH 7.5), 2 mM dithiothreitol, […] BSA, 50 mM NaCl, 20 nM primer/template, 50 nM PCNA, 10 nM Pol δ and variable concentrations of inhibitors. The reactions were initiated by addition of dNTPs and MgCl2. Reaction was allowed to proceed at 25° C. for 2 min before addition of stop buffer (95% formamide/25 mM EDTA). The products were separated on a 20% polyacrylamide gels urea. Products was visualized on phosphorimager and quantitated using Image-J software. For single nucleotide primer extension assay^18, the protocol is identical to primer extension assay except a single dNTP is used.

For test [3], the system named is R-BxPC-3 cells. As to the kind of experiment: Cell proliferation assay, MTT method. Format: cell-based, human. Conditions: R-BxPC-3 (cisplatin resistant). An excerpt: DNA replication precedes cell division. Thus, cancer cells cannot divide and proliferate without successful chromosomal duplication. A DNA polymerase inhibitor should inhibit cancer cell proliferation. We characterized the antiproliferative properties of zelpolib on a number of cell lines originated from pancreatic cancer (BxPC-3) and breast cancer (MCF7 for ER+ breast cancer). In addition, we developed a cisplatin resistant subline of a pancreatic cancer cell line, R-BxPC3 for our studies as well. We used the MTT method^25 for analyzing cell proliferation. This assay is based on the reduction of 3-(4,5-dimethylthiazol-2-yl)-2,5-diphenyltetrazolium bromide by live cells to an insoluble formazon, which were subsequently dissolved in DMSO and quantified by UV absorbance. Therefore, the cell number is proportional to the optical density in the established linear region. […] The plateau phenomena indicate inhibition of proliferation without cell killing, similar to these observed from hydroxyurea^26, aphidicolin^27, and to a certain extent, methotrexate treatments^28. […]
Human cancer cells (5×10^3-7.5×10^3) were initially seeded in 96-well plates (Cellstar) containing 0.2 ml media per well. […] Formazan crystals were then dissolved in 150 μl DMSO and optical density was read at 490 nm^25. […] Results were analyzed by GraphPad Prism. […]

T1 sequence (P28340 whole entry): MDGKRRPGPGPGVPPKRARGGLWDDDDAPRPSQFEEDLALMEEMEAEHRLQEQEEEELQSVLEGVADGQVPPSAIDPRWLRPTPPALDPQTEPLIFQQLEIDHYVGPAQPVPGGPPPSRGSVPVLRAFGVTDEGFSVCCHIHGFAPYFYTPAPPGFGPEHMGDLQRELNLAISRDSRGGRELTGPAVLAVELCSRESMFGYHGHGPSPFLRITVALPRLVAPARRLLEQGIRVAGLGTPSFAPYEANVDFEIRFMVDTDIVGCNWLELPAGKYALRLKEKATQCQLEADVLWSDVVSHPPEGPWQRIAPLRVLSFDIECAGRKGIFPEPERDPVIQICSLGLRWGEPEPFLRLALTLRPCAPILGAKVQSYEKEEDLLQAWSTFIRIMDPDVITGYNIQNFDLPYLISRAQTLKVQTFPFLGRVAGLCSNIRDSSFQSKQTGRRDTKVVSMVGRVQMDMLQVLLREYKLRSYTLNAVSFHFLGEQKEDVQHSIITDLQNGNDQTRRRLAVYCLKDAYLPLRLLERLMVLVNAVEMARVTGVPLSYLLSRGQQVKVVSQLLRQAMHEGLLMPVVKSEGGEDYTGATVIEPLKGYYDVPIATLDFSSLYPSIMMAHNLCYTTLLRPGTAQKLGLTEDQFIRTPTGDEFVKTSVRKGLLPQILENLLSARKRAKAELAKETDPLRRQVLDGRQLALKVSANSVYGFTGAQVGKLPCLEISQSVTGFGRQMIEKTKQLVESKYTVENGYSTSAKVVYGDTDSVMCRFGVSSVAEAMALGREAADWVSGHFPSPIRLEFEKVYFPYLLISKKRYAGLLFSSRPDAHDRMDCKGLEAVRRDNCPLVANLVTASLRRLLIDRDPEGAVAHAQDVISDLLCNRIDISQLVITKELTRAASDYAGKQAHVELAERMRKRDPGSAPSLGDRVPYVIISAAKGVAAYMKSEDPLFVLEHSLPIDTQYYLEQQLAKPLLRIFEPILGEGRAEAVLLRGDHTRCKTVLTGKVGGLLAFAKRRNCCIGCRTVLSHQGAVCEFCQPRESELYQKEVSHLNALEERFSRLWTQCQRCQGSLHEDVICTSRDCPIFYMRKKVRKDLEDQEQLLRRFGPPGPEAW
T1 sequence (P49005 whole entry partner): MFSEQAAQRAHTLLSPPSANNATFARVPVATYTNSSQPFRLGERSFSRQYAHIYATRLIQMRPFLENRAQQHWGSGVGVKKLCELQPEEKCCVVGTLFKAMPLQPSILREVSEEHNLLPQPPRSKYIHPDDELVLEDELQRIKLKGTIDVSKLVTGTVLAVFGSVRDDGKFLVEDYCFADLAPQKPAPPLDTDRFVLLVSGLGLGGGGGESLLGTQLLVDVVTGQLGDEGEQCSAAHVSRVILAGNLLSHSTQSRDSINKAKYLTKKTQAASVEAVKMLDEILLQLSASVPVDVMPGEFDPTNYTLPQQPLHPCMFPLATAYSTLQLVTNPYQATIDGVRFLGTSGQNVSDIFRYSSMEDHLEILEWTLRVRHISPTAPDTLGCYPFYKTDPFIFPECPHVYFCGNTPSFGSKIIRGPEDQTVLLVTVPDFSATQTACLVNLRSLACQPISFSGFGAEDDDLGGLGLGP
T1 sequence (Q15054 whole entry partner): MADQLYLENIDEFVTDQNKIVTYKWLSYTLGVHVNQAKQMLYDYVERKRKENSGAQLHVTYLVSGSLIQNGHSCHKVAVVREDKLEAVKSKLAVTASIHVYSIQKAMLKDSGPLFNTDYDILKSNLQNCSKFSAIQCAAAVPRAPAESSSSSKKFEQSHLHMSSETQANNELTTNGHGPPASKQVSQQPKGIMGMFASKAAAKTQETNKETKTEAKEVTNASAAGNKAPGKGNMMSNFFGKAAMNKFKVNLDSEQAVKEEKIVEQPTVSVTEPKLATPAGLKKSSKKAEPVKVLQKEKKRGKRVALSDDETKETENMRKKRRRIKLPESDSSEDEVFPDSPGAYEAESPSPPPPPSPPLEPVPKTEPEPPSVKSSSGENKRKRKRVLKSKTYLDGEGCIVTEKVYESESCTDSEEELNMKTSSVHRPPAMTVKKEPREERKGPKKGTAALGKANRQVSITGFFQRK
T1 sequence (P12004 whole entry partner): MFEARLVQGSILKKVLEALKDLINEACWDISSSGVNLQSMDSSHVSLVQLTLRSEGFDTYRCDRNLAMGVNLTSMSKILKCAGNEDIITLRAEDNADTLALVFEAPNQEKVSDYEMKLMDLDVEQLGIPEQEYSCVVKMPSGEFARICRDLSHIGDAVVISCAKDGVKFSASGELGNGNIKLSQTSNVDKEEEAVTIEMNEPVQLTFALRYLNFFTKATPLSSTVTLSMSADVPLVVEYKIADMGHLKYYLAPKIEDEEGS

In general, Ki refers to a dissociation constant, usually derived from enzyme kinetics or from competition with a known ligand. Regarding `COC(=O)c1cc(-c2ccccc2)sc1NC(=S)NNC(=O)CCc1ccc(O)c(O)c1` [zelpolib], the “inhibition of Pol δ activity at 10 μM” value in test [1] (assayed at 10 μM) is “significant inhibition”. Also, in test [1] (non-competitive against dTTP, with PCNA, R^2=0.99, read-out: inhibition constant Ki of Pol δ activity), the Ki is 4.3 µM. Besides, in test [2], the “inhibition of incorporation of individual dNTPs (dATP, dGTP, dCTP, dTTP)” value is listed as “inhibited the incorporation of all four nucleotides to similar extents in a noncompetitive manner”. The “concentration at which antiproliferative effect reaches a plateau” value in test [3] is given as “about 5 μM”.

For the origin of these results see US11324720B2, “Antiproliferative DNA polymerase inhibitor” (NEW YORK MEDICAL COLLEGE, priority 2018, dated 2022).
